# Experimental data from paper PMC9530963, “A cathelicidin antimicrobial peptide from Hydrophis cyanocinctus inhibits Zika virus infection by downregulating expression of a viral entry factor” (The Journal of Biological Chemistry, 2022).
# Legend:
# [1] = tested on: COX-2; test: COX-2 protein level in A549 cells (Western blot); assay type: cell-based, Homo sapiens; conditions: A549 cells, 1.25, 2.5, or 5 μM, 24 h
# Procedure: Figure 6 Hc-CATH downregulates AXL via inhibiting COX-2/PGE2/AC/PKA pathway.A, effect of Hc-CATH on COX-2 protein level. A549 cells were incubated with Hc-CATH (1.25, 2.5, or 5 μM) or PBS (solvent of Hc-CATH) at 37 °C for 24 h, COX-2 protein level was examined by Western blot (upper panel) and analyzed by ImageJ (lower panel). B, effect of Hc-CATH on the enzymatic activity of COX-2. Hc-CATH (1.25, 2.5, 5, and 10 μM) or PBS was incubated with COX-2. After incubation at 37 °C for 10 min, the enzymatic activity of COX-2 was detected by enzyme activity inhibitor screening kit. Celecoxib (COX-2 inhibitor, 100 nM) was used as positive control. C, effect of Hc-CATH on PGE2 production. A549 cells were incubated with Hc-CATH (5 μM) at 37 °C. After incubation for 24 h, the level of PGE2 in the cell supernatant was detected by ELISA. D and E, effect of AC (D) and PKA (E) on Hc-CATH-induced AXL downregulation. A549 cells were incubated with forskolin (FSK, agonist of AC, 10 μM) or H89 (inhibitor of PKA, 5 μM) at 37 °C. After incubation for 1 h, the culture media were removed, cells were washed three times with PBS, and fresh culture media were added to cells in the presence of Hc-CATH (5 μM). After incubation for 24 h, AXL protein level was examined by Western blot (upper panel of D and E) and analyzed by ImageJ (lower panel of D and E). ns, not significant, ∗∗p < 0.01, and ∗∗∗p < 0.001. […]
# [2] = tested on: ZIKV; test: Prophylactic efficacy against ZIKV infection in mice; assay type: in vivo
# [3] = tested on: COX-2; test: Enzymatic activity of COX-2 (inhibitor screening kit); assay type: biochemical; conditions: 10 μM, incubated with COX-2 at 37 °C for 10 min
# Procedure: Figure 6 Hc-CATH downregulates AXL via inhibiting COX-2/PGE2/AC/PKA pathway.A, effect of Hc-CATH on COX-2 protein level. A549 cells were incubated with Hc-CATH (1.25, 2.5, or 5 μM) or PBS (solvent of Hc-CATH) at 37 °C for 24 h, COX-2 protein level was examined by Western blot (upper panel) and analyzed by ImageJ (lower panel). B, effect of Hc-CATH on the enzymatic activity of COX-2. Hc-CATH (1.25, 2.5, 5, and 10 μM) or PBS was incubated with COX-2. After incubation at 37 °C for 10 min, the enzymatic activity of COX-2 was detected by enzyme activity inhibitor screening kit. Celecoxib (COX-2 inhibitor, 100 nM) was used as positive control. C, effect of Hc-CATH on PGE2 production. A549 cells were incubated with Hc-CATH (5 μM) at 37 °C. After incubation for 24 h, the level of PGE2 in the cell supernatant was detected by ELISA. D and E, effect of AC (D) and PKA (E) on Hc-CATH-induced AXL downregulation. […] After incubation for 24 h, AXL protein level was examined by Western blot (upper panel of D and E) and analyzed by ImageJ (lower panel of D and E). ns, not significant, ∗∗p < 0.01, and ∗∗∗p < 0.001.
# The effect of Hc-CATH on the enzymatic activity of COX-2 was detected by enzyme activity inhibitor screening kit. […] After incubation at 37 °C for 10 min, the enzymatic activity of COX-2 was detected by the kit. […]
# [4] = tested on: ZIKV; test: Susceptibility of Vero cells to ZIKV (peptide pretreatment of cells); assay type: cell-based, ZIKV strain PRVABC59; conditions: 2.5 μM, Vero cells incubated 2 h with peptide before ZIKV (MOI = 1), 48 h
# Procedure: Figure 2 Hc-CATH decreases the susceptibility of Vero cells to ZIKV.A, schematic diagram of B–G (Hc-CATH-Vero-pre). B–G, pretreatment with Hc-CATH before ZIKV infection decreases the susceptibility of Vero cells to ZIKV. Vero cells were seeded in 24-well plates (5 × 10^4 cells/well) and cultured in DMEM containing 2% FBS. Hc-CATH (2.5 μM), AC5 (2.5 μM), LL-37 (2.5 μM), or same volume of PBS (peptide solvent) was added to cells and incubated at 37 °C for 2 h. Vero cells were washed three times with PBS, and ZIKV (MOI = 1) was added to cells. After incubation at 37 °C for 2 h, Vero cells were washed with PBS and transferred with fresh DMEM containing 2% FBS. After culture for 48 h, intracellular ZIKV RNA (B), NS3 protein (C and D, C: immunoblots, D: ratio analyzed by ImageJ), E protein (E, the scale bar represents 50 μm), and extracellular ZIKV titer (F and G) was tested by qPCR, Western blot, immunofluorescence staining, and plaque-forming assay, respectively.
# Vero, A549, or U251 cells were incubated with peptide or PBS at 37 °C for 2 h. The cells were washed three times with PBS and incubated with ZIKV (MOI = 1) at 37 °C for 2 h. The culture media were replaced with fresh DMEM containing 2% FBS. After incubation at 37 °C for 48 h, intracellular ZIKV RNA, NS3 protein, E protein, and extracellular ZIKV titer were detected by qPCR, WB, IF, and plaque-forming assay, respectively ([28]).
# [5] = tested on: ZIKV; conditions: i.v. peptide 2 h after i.v. ZIKV 10^6 PFU/mouse, qPCR
# Description: At 4, 8, and 3 days post ZIKV inoculation, C57BL/6J mice, Ifnar1^−/− mice, and pregnant C57BL/6J mice were sacrificed, respectively. Tissues and fetal mice were collected for testing ZIKV RNA by qPCR. ns, not significant, ∗p < 0.05, ∗∗p < 0.01, and ∗∗∗p < 0.001. Hc-CATH, a cathelicidin antimicrobial peptide identified from the sea snake Hydrophis cyanocinctus; PFU, plaque-forming unit; qPCR, quantitative PCR; ZIKV, Zika virus.
# To evaluate the therapeutic efficacy of Hc-CATH against ZIKV infection, C57BL/6J mice, Ifnar1^−/− mice, and pregnant C57BL/6J mice were intravenously administrated with Hc-CATH at 2 h after intravenous injection of ZIKV (10^6 PFU/mouse). C57BL/6J mice, Ifnar1^−/− mice, and pregnant C57BL/6J mice were sacrificed at 4, 8, and 3 days post ZIKV inoculation, respectively. Tissues and fetal mice were collected for testing ZIKV RNA level by qPCR.
# [6] = tested on: Vero, A549 or U251 cells; conditions: 1.25, 2.5, and 5 μM, 48 h, 37 °C, CCK-8
# Procedure: Vero, A549 or U251 cells (1×10^4 cells/well) were seeded
# in 96-well plates . Series of two -fold peptide dilutions in DMEM were added to each well to
# give final concentrations from 0.78125 to 50 μM. After incubation at 37℃ for 48 h, cell
# counting assay kit (CCK -8) was applied to determine the cytotoxicity. ***P < 0.001, ns, not
# [7] = tested on: bacteria; set-up: method as in PMID 26013823; conditions: cited from earlier work
sequence,measurement,setting,value
"KFFKRLLKSVRRAVKKFRKKPRLIGLSTLL [Hc-CATH, cathelicidin antimicrobial peptide identified from the sea snake Hydrophis cyanocinctus]",expression of COX-2,[1],did not influence the expression of COX-2
same,anti-ZIKV efficacy in vivo compared with positive peptides,"[2]; C57BL/6J mice, prophylactic and therapeutic (Figs. 11E and 12E)",comparable with or even better than that of AC5 and LL-37
same,"ZIKV replication in C57BL/6J mice, prophylactic","[2]; i.v. peptide 2 h before i.v. ZIKV 10^6 PFU/mouse, 4 days, tissue ZIKV RNA, qPCR",significantly decreased ZIKV replication
same,"ZIKV replication in Ifnar1−/− mice, prophylactic","[2]; i.v. peptide 2 h before i.v. ZIKV 10^6 PFU/mouse, 8 days, tissue ZIKV RNA, qPCR",significantly decreased ZIKV replication
same,"ZIKV replication in fetal placenta and fetal mice, prophylactic","[2]; pregnant C57BL/6J mice, i.v. peptide 2 h before i.v. ZIKV 10^6 PFU/mouse, 3 days, qPCR",significantly decreased ZIKV replication
same,inhibitory rate against COX-2 activity,[3],about 80%
same,"reduction of ZIKV NS3 protein, cells pre-incubated with peptide",[4]; Western blot,~50.1%
same,"reduction of ZIKV particles, cells pre-incubated with peptide",[4]; plaque-forming assay,~62.2%
same,"reduction of ZIKV RNA, cells pre-incubated with peptide",[4]; qPCR,about 46.1%
same,"ZIKV replication in C57BL/6J mice, therapeutic","[5]; 4 days, tissue ZIKV RNA",significantly attenuated ZIKV replication
same,"ZIKV replication in Ifnar1−/− mice, therapeutic","[5]; 8 days, tissue ZIKV RNA",significantly attenuated ZIKV replication
same,"ZIKV replication in fetal placenta and fetal mice, therapeutic","[5]; pregnant C57BL/6J mice, 3 days",significantly attenuated ZIKV replication
same,cytotoxicity against mammalian cells,[6],did not have cytotoxicity
same,antibacterial spectrum,[7],broad antibacterial spectrum
